Reference: patent publication US20070249590A1, “Substituted indolo[2,3-a]pyrrolo[3,4-c]carbazole compounds useful in treating kinase disorders” (priority 2005, published 2007)

Target: T1, JAK3 (JH1 and JH2 domain) (Homo sapiens, UniProt P52333)
T1 sequence (P52333 521-1111 limits assumed): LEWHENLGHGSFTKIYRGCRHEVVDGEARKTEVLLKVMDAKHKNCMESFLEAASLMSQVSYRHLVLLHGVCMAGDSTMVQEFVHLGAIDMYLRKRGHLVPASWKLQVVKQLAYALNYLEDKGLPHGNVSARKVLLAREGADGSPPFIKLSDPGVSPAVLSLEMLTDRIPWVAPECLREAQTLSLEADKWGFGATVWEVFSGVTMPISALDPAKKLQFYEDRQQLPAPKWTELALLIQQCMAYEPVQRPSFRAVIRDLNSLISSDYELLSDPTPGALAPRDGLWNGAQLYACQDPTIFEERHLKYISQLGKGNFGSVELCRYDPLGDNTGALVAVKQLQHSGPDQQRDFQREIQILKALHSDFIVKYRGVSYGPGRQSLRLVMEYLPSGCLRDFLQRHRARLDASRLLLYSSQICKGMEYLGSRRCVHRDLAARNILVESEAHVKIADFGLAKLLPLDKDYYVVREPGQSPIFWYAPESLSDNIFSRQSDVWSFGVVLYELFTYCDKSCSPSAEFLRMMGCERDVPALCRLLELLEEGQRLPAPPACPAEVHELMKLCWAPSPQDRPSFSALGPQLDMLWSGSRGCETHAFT
Assay: JAK3 Kinase Assay (ELISA of peptide substrate phosphorylation)
Format: biochemical
Settings: purified JAK3 enzyme, 10 μM ATP, biotinylated peptide substrate, 1 hour at room temperature
How it was run: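 Sf21-baculovirus-expressed JAK3 (JH1+JH2), glutathione-bead purified, with biotinylated peptide substrate (in buffer containing 10 μM ATP) in HEPES pH 7.5/MgCl2/DTT, 1 h RT. Product was captured on Neutravidin, detected with HRP anti-phosphotyrosine (PY99)/TMB, OD 450/650 nm. Triplicate 16-point half-log series from 200 μM gave IC50; otherwise % inhibition at 1 μM.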

IC50 [nM]	SMILES
543	CN(C(=O)OC1CCn2c3ccccc3c3c4c(c5c6ccccc6n(c5c32)C1)C(=O)NC4=O)C1CCN(Cc2ccccc2)C1 (stereo not shown) [Cpd 61, 12,13-{2-[N-methyl-N-(1-benzyl-pyrrolidin-3-yl)carbamoyloxy]-butan-1,4-yl}-12,13-dihydro-5,7-dioxo-6H-indolo[2,3-a]pyrrolo[3,4-c]carbazole]
202	O=C1NCc2c1c1c3ccccc3n3c1c1c2c2ccccc2n1CC(COC(=O)N1CCN(Cc2ccc4c(c2)OCO4)CC1)C3 (stereo not shown) [Cpd 170, 12,13-(2-{[4-(benzo[1,3]dioxol-5-ylmethyl)piperazin-1-yl]carbonyloxymethyl}-propan-1,3-yl}-6,7,12,13-tetrahydro-5-oxo-5H-indolo[2,3-a]pyrrolo[3,4-c]carbazole]
36	O=C1NC(=O)c2c1c1c3ccccc3n3c1c1c2c2ccccc2n1CC(O)(C(=O)NC(CO)CO)C(O)C3 (stereo not shown) [Cpd 118, 12,13-{2-[(1,3-hydroxy-isopropyl)carbamoyl]-2,3-dihydroxy-butan-1,4-yl}-12,13-dihydro-5,7-dioxo-6H-indolo[2,3-a]pyrrolo[3,4-c]carbazole]
72	C=C1Cn2c3ccccc3c3c4c(c5c6ccccc6n(c5c32)C1)C(=O)NC4 [Cpd 22, 12,13-(2-methylene-propan-1,3-yl)-6,7,12,13-tetrahydro-5-oxo-5H-indolo[2,3-a]pyrrolo[3,4-c]carbazole]
154	O=C(NC1CCNCC1)OCC1(O)Cn2c3ccccc3c3c4c(c5c6ccccc6n(c5c32)C1)C(=O)NC4 (stereo not shown) [Cpd 178, 12,13-[2-hydroxy-2-(piperidin-4-yl-carbamoyloxymethyl)-propan-1,3-yl]-6,7,12,13-tetrahydro-5-oxo-5H-indolo[2,3-a]pyrrolo[3,4-c]carbazole]
16	COC1Cn2c3ccccc3c3c4c(c5c6ccccc6n(c5c32)CC1OC)C(=O)NC4=O (stereo not shown) [Cpd 10, 12,13-(2,3-dimethoxy-butan-1,4-yl)-12,13-dihydro-5,7-dioxo-6H-indolo[2,3-a]pyrrolo[3,4-c]carbazole]
12	CC1(O)Cn2c3ccccc3c3c4c(c5c6ccccc6n(c5c32)CC1(C)O)C(=O)NC4 (stereo not shown) [Cpd 20, 12,13-(2,3-dimethyl-2,3-dihydroxy-butan-1,4-yl)-6,7,12,13-tetrahydro-5-oxo-5H-indolo[2,3-a]pyrrolo[3,4-c]carbazole]
> 200	CC(C)NC(=O)OCC1(O)Cn2c3ccccc3c3c4c(c5c6ccccc6n(c5c32)C1)C(=O)NC4 (stereo not shown) [Cpd 135, 12,13-[2-hydroxy-2-(isopropyl-carbamoyloxymethyl)-propan-1,3-yl]-6,7,12,13-tetrahydro-5-oxo-5H-indolo[2,3-a]pyrrolo[3,4-c]carbazole]
23	CN1CCN(CCCNC(=O)OCC2(O)Cn3c4ccccc4c4c5c(c6c7ccccc7n(c6c43)C2)C(=O)NC5)CC1 (stereo not shown) [Cpd 151, 12,13-(2-hydroxy-2-{[3-(4-methyl-piperazin-1-yl)prop-1-yl]carbamoyloxymethyl}-propan-1,3-yl)-6,7,12,13-tetrahydro-5-oxo-5H-indolo[2,3-a]pyrrolo[3,4-c]carbazole]
100	O=C(NCc1ccc2c(c1)OCO2)OC1Cn2c3ccccc3c3c4c(c5c6ccccc6n(c5c32)CC1O)C(=O)NC4=O (stereo not shown) [Cpd 80, 12,13-{2-[(benzo[1,3]dioxol-5-yl-methyl)carbamoyloxy]-3-hydroxy-butan-1,4-yl}-12,13-dihydro-5,7-dioxo-6H-indolo[2,3-a]pyrrolo[3,4-c]carbazole]
48	O=C1NC(=O)c2c1c1c3ccccc3n3c1c1c2c2ccccc2n1CC(O)(C(=O)N1CCN(CCO)CC1)C(O)C3 (stereo not shown) [Cpd 130]
34	O=C1NCc2c1c1c3cc(Br)ccc3n3c1c1c2c2ccccc2n1CC(O)C(O)C3 (stereo not shown) [Cpd 188, 3-bromo-12,13-(2,3-dihydroxy-butan-1,4-yl)-6,7,12,13-tetrahydro-5-oxo-5H-indolo[2,3-a]pyrrolo[3,4-c]carbazole]
122	O=C1NC(=O)c2c1c1c3ccccc3n3c1c1c2c2ccccc2n1CC(OC(=O)N1CCN(Cc2ccccc2)CC1)CC3 (stereo not shown) [Cpd 44, 12,13-{2-[(4-benzyl-piperazin-1-yl)carbonyloxy]-butan-1,4-yl}-12,13-dihydro-5,7-dioxo-6H-indolo[2,3-a]pyrrolo[3,4-c]carbazole]
677	CN(C)[C@H]1CCN(C(=O)OCC2Cn3c4ccccc4c4c5c(c6c7ccccc7n(c6c43)C2)C(=O)NC5)C1 (stereo partly drawn) [Cpd 171, 12,13-(2-{[(3S)-3-dimethylamino-pyrrolidin-1-yl]carbonyloxymethyl}-propan-1,3-yl)-6,7,12,13-tetrahydro-5-oxo-5H-indolo[2,3-a]pyrrolo[3,4-c]carbazole]
578	O=C1NCc2c1c1c3ccccc3n3c1c1c2c2ccccc2n1CC(COC(=O)N1CCN(CCOCCO)CC1)C3 (stereo not shown) [Cpd 166, 12,13-[2-({4-[2-(2-hydroxy-ethoxy)ethyl]piperazin-1-yl}carbonyloxymethyl)-propan-1,3-yl]-6,7,12,13-tetrahydro-5-oxo-5H-indolo[2,3-a]pyrrolo[3,4-c]carbazole]
58	O=C1NCc2c1c1c3ccccc3n3c1c1c2c2ccccc2n1CCC(O)CC3 (stereo not shown) [Cpd 28, 12,13-(3-hydroxy-pentan-1,5-yl)-6,7,12,13-tetrahydro-5-oxo-5H-indolo[2,3-a]pyrrolo[3,4-c]carbazole]
241	CC(C)NCc1ccc2c(c1)c1c3c(c4c5ccccc5n5c4c1n2CC(CO)C5)CNC3=O (stereo not shown) [Cpd 213, 3-(isopropylaminomethyl)-12,13-(2-hydroxymethyl-propan-1,3-yl)-6,7,12,13-tetrahydro-5-oxo-5H-indolo[2,3-a]pyrrolo[3,4-c]carbazole]
7	COC(=O)/C1=C/Cn2c3ccccc3c3c4c(c5c6ccccc6n(c5c32)C1)C(=O)NC4=O [Cpd 3, 12,13-(2-methoxycarbonyl-but-2-en-1,4-yl)-12,13-dihydro-5,7-dioxo-6H-indolo[2,3-a]pyrrolo[3,4-c]carbazole]
37	O=C1NCc2c1c1c3ccccc3n3c1c1c2c2ccccc2n1CC(=C(CO)CO)C3 [Cpd 24, 12,13-(2-{[1,1-bis-(dihydroxymethyl)]methylidene}-propan-1,3-yl)-6,7,12,13-tetrahydro-5-oxo-5H-indolo[2,3-a]pyrrolo[3,4-c]carbazole]
73	COc1ccccc1CNC(=O)OCC1Cn2c3ccccc3c3c4c(c5c6ccccc6n(c5c32)C1)C(=O)NC4 (stereo not shown) [Cpd 169, 12,13-{2-[(2-methoxy-benzyl)carbamoyloxymethyl]-propan-1,3-yl}-6,7,12,13-tetrahydro-5-oxo-5H-indolo[2,3-a]pyrrolo[3,4-c]carbazole]

SMILES	IC50 [nM]
CC(C)(C)OC(=O)NC1CCN(C(=O)OCC2Cn3c4ccccc4c4c5c(c6c7ccccc7n(c6c43)C2)C(=O)NC5)CC1 (stereo not shown) [Cpd 172, 12,13-(2-{[4-(t-butoxycarbonylamino)piperidin-1-yl]carbonyloxymethyl}-propan-1,3-yl)-6,7,12,13-tetrahydro-5-oxo-5H-indolo[2,3-a]pyrrolo[3,4-c]carbazole]	120
CC(C)(C)OC(=O)CNC(=O)OC1CCn2c3ccccc3c3c4c(c5c6ccccc6n(c5c32)C1)C(=O)NC4=O (stereo not shown) [Cpd 37, 12,13-{2-[(t-butoxycarbonylmethyl)carbamoyloxy]-butan-1,4-yl}-12,13-dihydro-5,7-dioxo-6H-indolo[2,3-a]pyrrolo[3,4-c]carbazole]	4
